Measured values: patent publication US20250092065A1, “2-(INDAZOL-5-YL)-6-(PIPERIDIN-4-YL)-1,7-NAPHTHYRIDINE DERIVATIVES AND RELATED COMPOUNDS AS MODULATORS FOR SPLICING NUCLEIC ACIDS AND FOR THE TREATMENT OF PROLIFERATIVE DISEASES” (REMIX THERAPEUTICS INC., priority 2022, published 2025)
Where two headings read alike, the source gives them in different places.

Assays:
Assay type in all cases: cell-based, human
SMN2 mRNA = test: RT-qPCR splicing assay, SMN2 mRNA; conditions: Homo sapiens, canonical junction qPCR panel, Table 4; read-out: SMN2 IC50 (decrease in CJ mRNA levels)
Method in brief: (§1)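 A673 or K562 cells treated 24 h at 37 °C with an 11-point 3-fold dilution series (top 10 uM, DMSO ≤0.25%). Lysates went directly to one-step RT-qPCR quantifying canonical (CJ) and alternative-exon (AJ) junctions, normalized to GAPDH, GUSB or PPIA. Values from ΔΔCt versus DMSO, RQ = 2^(−ΔΔCt), expressed as percentage response.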

HTT mRNA = test: RT-qPCR splicing assay, HTT mRNA canonical (CJ) and alternative (AJ) junction; conditions: Homo sapiens; for AC50: HTT alternative junction mRNA, read-out: HTT AJ (increase in AJ mRNA, AC50)
Method in brief: as §1

MYB mRNA = test: RT-qPCR splicing assay, MYB mRNA canonical (CJ) and alternative (AJ) junction; conditions: Homo sapiens; for AC50: MYB alternative junction mRNA, read-out: MYB AJ (increase in AJ mRNA, AC50)
Method in brief: as §1

MYB = test: HiBiT protein abundance assay, MYB (K562 HiBiT knock-in); conditions: HiBiT knock-in K562 cells, 24 hours, top dose 10 μM
Method in brief: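 Luminescence readout: Nano-Glo HiBiT lytic detection after 24 h compound exposure of K562 HiBiT knock-in cells, 10000 cells/well. Dosing 10-pt, 3-fold, top 10 μM final. % response vs untreated parental K562 and DMSO controls; 4PL fit, IC50 = concentration giving 50% protein abundance.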

[1] = HTT canonical junction mRNA, RT-qPCR, read-out: HTT CJ (decrease in CJ mRNA levels, IC50)
[2] = canonical junction qPCR panel, Table 4, read-out: HTT IC50 (decrease in CJ mRNA levels)
[3] = MYB canonical junction mRNA, RT-qPCR, read-out: MYB CJ (decrease in CJ mRNA levels, IC50)
[4] = canonical junction qPCR panel, Table 4, read-out: MYB IC50 (decrease in CJ mRNA levels)

| Structure (SMILES) | IC50 (SMN2 mRNA) | IC50 (HTT mRNA; [1]) | IC50 (HTT mRNA; [2]) | IC50 (MYB mRNA; [3]) | IC50 (MYB mRNA; [4]) | IC50 (MYB) | AC50 (HTT mRNA; RT-qPCR) | AC50 (MYB mRNA; RT-qPCR) |
| --- | --- | --- | --- | --- | --- | --- | --- | --- |
| C[C@H]1C[C@H](c2ccc3nc(-c4cc5cn(C)nc5c(F)c4O)ccc3n2)CCN1 (single isomer, unassigned) [Compound 356] | < 100 nM | < 100 nM | < 100 nM | < 100 nM | < 100 nM | < 100 nM | < 100 nM | < 100 nM |
| Cc1c(O)c(-c2ccc3nc(N4CC[C@H](N[C@H]5C[C@H](F)C5)C4)ccc3n2)cc2cn(C)nc12 (single isomer, unassigned) [Compound 358] | < 100 nM | < 100 nM | < 100 nM | < 100 nM | < 100 nM | < 100 nM | < 100 nM | < 100 nM |
| Cn1cc2cc(-c3ccc4nc(N5CC[C@@H](N)C5)ccc4n3)c(O)c(F)c2n1 (single isomer, unassigned) [Compound 362] | < 100 nM | < 100 nM | < 100 nM | < 100 nM | < 100 nM | < 100 nM | < 100 nM | < 100 nM |
| CN[C@@H]1CCN(c2ccc3nc(-c4cc5cn(C)nc5c(C)c4O)ncc3n2)C1 (single isomer, unassigned) [Compound 368] | < 100 nM | 100 to 1000 nM | 100 to 1000 nM | < 100 nM | < 100 nM | < 100 nM | 100 to 1000 nM | < 100 nM |
| CN[C@H]1CCN(c2ccc3nc(-c4cc5cn(C)nc5c(C)c4O)ncc3n2)C1 (single isomer, unassigned) [Compound 369] | < 100 nM | 100 to 1000 nM | 100 to 1000 nM | 100 to 1000 nM | 100 to 1000 nM | < 100 nM | 100 to 1000 nM | 100 to 1000 nM |
| Cc1nc2c(F)c(O)c(-c3ccc4nc(N5CC[C@H](NC6(CF)CC6)C5)ccc4n3)cc2o1 (single isomer, unassigned) [Compound 373] | < 100 nM | < 100 nM | < 100 nM | < 100 nM | < 100 nM | < 100 nM | < 100 nM | < 100 nM |
| Cc1nc2c(C)c(O)c(-c3ccc4nc(N5CC[C@H](NC6(CF)CC6)C5)ccc4n3)cc2o1 (single isomer, unassigned) [Compound 378] | < 100 nM | < 100 nM | < 100 nM | < 100 nM | < 100 nM | < 100 nM | < 100 nM | < 100 nM |
| Cc1nc2c(C)c(O)c(-c3ccc4nc(N5CC[C@@H](NC6(CF)CC6)C5)ccc4n3)cc2o1 (single isomer, unassigned) [Compound 379] | < 100 nM | < 100 nM | < 100 nM | 100 to 1000 nM | 100 to 1000 nM | < 100 nM | 100 to 1000 nM | 100 to 1000 nM |
| Cn1cc2cc(-c3ncc4nc(N5CC[C@@H](N)C5)ccc4n3)c(O)c(F)c2n1 (single isomer, unassigned) [Compound 380] | < 100 nM | < 100 nM | < 100 nM | < 100 nM | < 100 nM | < 100 nM | 100 to 1000 nM | < 100 nM |
| C[C@H]1C[C@@H](c2ccc3nc(-c4cc5cn(C)nc5c(F)c4O)ccc3n2)CCN1 (single isomer, unassigned) [Compound 383] | < 100 nM | < 100 nM | < 100 nM | < 100 nM | < 100 nM | < 100 nM | < 100 nM | < 100 nM |
| Cn1cc2cc(-c3ccc4nc(C5CCNC[C@H]5O)ccc4n3)c(O)cc2n1 (single isomer, unassigned) [Compound 386] | < 100 nM | > 10000 nM | > 10000 nM | 100 to 1000 nM | 100 to 1000 nM | 100 to 1000 nM | > 10000 nM | 1000 to 10000 nM |
| Cn1cc2cc(-c3ccc4nc(N5CCC(NC6(CF)CC6)C5)ccc4n3)c(O)c(F)c2n1 (stereo in doubt) [Compound 353, 7-fluoro-5-{6-[(3R)-3-{[1-(fluoromethyl)cyclopropyl]amino}pyrrolidin-1-yl]-1,5-naphthyridin-2-yl}-2-methylindazol-6-ol] | < 100 nM | < 100 nM | < 100 nM | < 100 nM | < 100 nM | < 100 nM | < 100 nM | < 100 nM |
| Cn1cc2cc(-c3ccc4nc(N5CCC(NC6(CF)CC6)C5)ccc4n3)c(O)c(F)c2n1 (stereo in doubt) [Compound 357, 7-fluoro-5-{6-[(3S)-3-{[1-(fluoromethyl)cyclopropyl]amino}pyrrolidin-1-yl]-1,5-naphthyridin-2-yl}-2-methylindazol-6-ol] | < 100 nM | < 100 nM | < 100 nM | < 100 nM | < 100 nM | < 100 nM | < 100 nM | < 100 nM |
| Cn1cc2cc(-c3ccc4nc(N5CCC(N)C5)ccc4n3)c(O)c(F)c2n1 (stereo in doubt) [Compound 363, 5-{6-[(3R)-3-aminopyrrolidin-1-yl]-1,5-naphthyridin-2-yl}-7-fluoro-2-methylindazol-6-ol] | < 100 nM | < 100 nM | < 100 nM | < 100 nM | < 100 nM | < 100 nM | < 100 nM | < 100 nM |

Continued, in another order:

| IC50 (SMN2 mRNA) | IC50 (HTT mRNA; [1]) | IC50 (HTT mRNA; [2]) | IC50 (MYB mRNA; [3]) | IC50 (MYB mRNA; [4]) | IC50 (MYB) | Structure (SMILES) | AC50 (HTT mRNA; RT-qPCR) | AC50 (MYB mRNA; RT-qPCR) |
| --- | --- | --- | --- | --- | --- | --- | --- | --- |
| < 100 nM | < 100 nM | < 100 nM | < 100 nM | < 100 nM | < 100 nM | Cn1cc2cc(-c3ccc4nc(N5CC[C@@H](NC(C)(C)C)C5)ccc4n3)c(O)c(F)c2n1 (single isomer, unassigned) [Compound 391] | < 100 nM | < 100 nM |
| < 100 nM | < 100 nM | < 100 nM | < 100 nM | < 100 nM | < 100 nM | Cn1cc2cc(-c3ccc4nc(N5CC[C@H](NC(C)(C)C)C5)ccc4n3)c(O)c(F)c2n1 (single isomer, unassigned) [Compound 392] | < 100 nM | < 100 nM |
| < 100 nM | 1000 to 10000 nM | 1000 to 10000 nM | 1000 to 10000 nM | 1000 to 10000 nM | 100 to 1000 nM | Cc1c(O)c(-c2ncc3nc([C@@H]4CCNC4)ccc3n2)cc2cn(C)nc12 (single isomer, unassigned) [Compound 398] | 1000 to 10000 nM | 1000 to 10000 nM |
| < 100 nM | < 100 nM | < 100 nM | < 100 nM | < 100 nM | 100 to 1000 nM | Cc1nc2c(C)c(O)c(-c3ccc4nc(N5CC[C@@H](NC6CC6)C5)ncc4n3)cc2o1 (single isomer, unassigned) [Compound 432] | < 100 nM | 100 to 1000 nM |
| < 100 nM | < 100 nM | < 100 nM | 100 to 1000 nM | 100 to 1000 nM | 100 to 1000 nM | Cc1nc2cc(O)c(-c3ccc4nc(N5CC[C@@H](NC6CC6)C5)ncc4n3)cc2o1 (single isomer, unassigned) [Compound 434] | < 100 nM | 100 to 1000 nM |
| < 100 nM | < 100 nM | < 100 nM | 100 to 1000 nM | 100 to 1000 nM | < 100 nM | Cc1nc2c(C)c(O)c(-c3ccc4cc(N5CC[C@@H](NC(C)(C)C)C5)ncc4n3)cc2o1 (single isomer, unassigned) [Compound 444] | 100 to 1000 nM | 100 to 1000 nM |
| 100 to 1000 nM | 1000 to 10000 nM | 1000 to 10000 nM | 1000 to 10000 nM | 1000 to 10000 nM | 100 to 1000 nM | Cc1nc2c(C)c(O)c(-c3ccc4cc(N5CC[C@H](NC(C)(C)C)C5)ncc4n3)cc2o1 (single isomer, unassigned) [Compound 445] | 1000 to 10000 nM | 1000 to 10000 nM |
| < 100 nM | < 100 nM | < 100 nM | < 100 nM | < 100 nM | 100 to 1000 nM | Cc1nc2cc(O)c(-c3ccc4nc(N5CC[C@@H](NC6(CF)CC6)C5)ccc4n3)cc2o1 (single isomer, unassigned) [Compound 488] | < 100 nM | < 100 nM |
| < 100 nM | < 100 nM | < 100 nM | < 100 nM | < 100 nM | < 100 nM | Cc1nc2cc(O)c(-c3ccc4nc(N5CC[C@H](NC6(CF)CC6)C5)ccc4n3)cc2o1 (single isomer, unassigned) [Compound 489] | < 100 nM | < 100 nM |
| < 100 nM | < 100 nM | < 100 nM | < 100 nM | < 100 nM | < 100 nM | Cc1nc2c(F)c(O)c(-c3ccc4nc(N5CC[C@@H](NC6(CF)CC6)C5)ccc4n3)cc2o1 (single isomer, unassigned) [Compound 491] | < 100 nM | < 100 nM |
